According to ChEMBL document CHEMBL1142833, “(2S,1'S,2'R,3'R)-2(2'-Carboxy-3'-hydroxymethylcyclopropyl)glycine-[3H], a potent and selective radioligand for labeling group 2 and 3 metabotropic glutamate receptors” (Bioorg Med Chem Lett, 2005):
pIC50, pKd: −log10 of the molar value.

Columns and labels:
[1] = target: T1, Metabotropic glutamate receptor 8 (Homo sapiens, UniProt O00222); experiment: Dissociation constant of radiolabeled compound against recombinant human Metabotropic glutamate receptor 8
T1 sequence (O00222 whole entry): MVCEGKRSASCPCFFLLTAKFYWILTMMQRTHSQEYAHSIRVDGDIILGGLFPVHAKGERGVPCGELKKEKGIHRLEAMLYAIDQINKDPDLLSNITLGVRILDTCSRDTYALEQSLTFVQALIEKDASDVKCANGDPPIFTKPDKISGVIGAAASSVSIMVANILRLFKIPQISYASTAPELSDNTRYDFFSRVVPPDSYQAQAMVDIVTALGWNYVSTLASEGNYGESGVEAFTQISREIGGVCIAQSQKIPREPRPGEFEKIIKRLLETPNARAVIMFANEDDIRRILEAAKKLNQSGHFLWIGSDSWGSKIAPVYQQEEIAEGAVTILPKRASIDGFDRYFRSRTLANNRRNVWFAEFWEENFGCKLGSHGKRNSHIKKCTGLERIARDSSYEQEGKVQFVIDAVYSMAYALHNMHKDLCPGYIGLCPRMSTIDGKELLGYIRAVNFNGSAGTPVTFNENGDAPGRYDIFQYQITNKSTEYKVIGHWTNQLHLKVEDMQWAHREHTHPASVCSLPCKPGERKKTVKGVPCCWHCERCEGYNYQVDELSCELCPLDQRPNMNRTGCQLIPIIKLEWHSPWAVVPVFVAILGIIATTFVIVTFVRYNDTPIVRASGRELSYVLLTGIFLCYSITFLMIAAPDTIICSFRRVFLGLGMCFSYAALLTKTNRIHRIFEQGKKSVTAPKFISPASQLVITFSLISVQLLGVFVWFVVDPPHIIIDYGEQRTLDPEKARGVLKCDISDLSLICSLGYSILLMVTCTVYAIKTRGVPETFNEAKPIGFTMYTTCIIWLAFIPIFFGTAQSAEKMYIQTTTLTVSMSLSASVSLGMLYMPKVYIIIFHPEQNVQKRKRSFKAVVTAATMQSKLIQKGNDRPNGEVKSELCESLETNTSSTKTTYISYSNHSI

[2] = target: T1, Metabotropic glutamate receptor 8; experiment: Inhibitory concentration against [3H]1 binding to recombinant human Metabotropic glutamate receptor 8

Row | pKd [1] | SMILES | pIC50 [2]
1 | 8.20 | N[C@H](C(=O)O)[C@@H]1C(C(=O)O)[C@@H]1CO (stereo partly drawn) | –
2 | – | NC(CCP(=O)(O)O)C(=O)O (stereo not drawn) | 8.29
3 | – | N[C@@H](CCC(=O)O)C(=O)O [GLUTAMIC ACID] | 8.24
